For assay [1], the system named is HIVpro1-FT (anti-parallel DNA G4). Kind of assay: FRET melting assay, HIVpro1-FT. As to conditions: ligand 1 μM, DNA 0.2 μM. The format is binding, HIV-1. How it is done:
Doubly labelled oligonucleotides with fluorescein and TAMRA were purchased lyophilized and RP-cartridge purified from Eurogentec (Kanaka Eurogentec, Seraing, Belgium). FRET melting experiments were run on Stratagene Mx3005P real-time PCR equipment in 96-well plates on the DNA sequences listed Table 1. Experiments were performed in 10 mM lithium cacodylate buffer (pH 7.2) and 10 mM KCl and 90 mM LiCl as previously described.[45,46] The DNA concentration was 0.2 μM. The stabilization (ΔT1/2) induced by compounds was calculated as the difference between the Tm of the nucleic acid alone and that measured with a ligand concentration of 1 μM. Data are presented as averages of three independent measurements, each conducted in duplicate (λexc = 492 nm, λem = 516 nm, T interval = 25–95 °C, ramp: 25 °C for 5 min, then 1 °C min^−1, measurements every 1 °C, 8× magnification of the fluorescence signal). The G4 selectivity of the ligands with respect to the duplex was evaluated by determining the Tm values in the presence of 0, 3 or 10 μM of the duplex competitor ds26.
In this assay, we performed thermal denaturation experiments by heating and recording the fluorescence of DNA oligonucleotides doubly labelled with fluorescein and TAMRA fluorophores (Fig. 3 and S7). Ligand binding to the G4 stabilises the structure, resulting in an increase in the half-dissociation temperature of the structure (ΔT1/2). As a first approximation, the higher the ΔT1/2 (ΔT1/2 higher), the higher the affinity of the ligand for the target.[45]
The fluorescently labeled oligonucleotides were dissolved at a concentration of 0.2 μM in 10 mM lithium cacodylate buffer (pH 7.2) with 10 mM KCl and 90 mM LiCl. […] E) Radar plot representation that summarizes the FRET-melting results (ΔT1/2 (°C)) for each ligand in the presence of HIVpro1-FT (green), HIVpro2-FT (grey), LTR4-FT (bleu), and Htel-FT (red). Data are the results of at least three independent experiments in which each data point was performed in duplicate.

In assay [2] the test system is rLTR4-3′Cy5 (parallel RNA G4). The assay is described as follows: Ligand-induced fluorescence quenching assay (FQA), rLTR4-3′Cy5. The assay is classed as binding, HIV-1. How it is done:
(§1) Cy5 labelled oligonucleotides were purchased lyophilized and RP-cartridge purified from Eurogentec (Kanaka Eurogentec, Seraing, Belgium). The ligand-induced fluorescence quenching assay was conducted as previously described.[47] A Stratagene Mx3005P instrument was used to carry out the assay in 96-well plates. The filters for excitation and emission were set at 635 nm and 665 nm, respectively. The gain was used at 8×. The labeled oligonucleotide was used at 10 nM, and the buffer was 10 mM lithium cacodylate (pH 7.2), 10 mM KCl, and 90 mM LiCl in a final volume of 50 μL. The oligonucleotide was heated at 90 °C for 5 min and put in ice to anneal. The ligand was added over a range of concentrations between 0 and 80 μM. A competitor, ds26, was also added at 3 or 10 μM. Each experimental condition was tested in triplicate except for the ligand alone with the buffer, which was tested in duplicate. The instrument was programmed to heat the plate for 10 min at 25 °C and measure the fluorescence after 1 min for 5 cycles. The fluorescence of each sample was normalized, and the fluorescence of the ligand alone was subtracted.
(§2) We then addressed the binding of the DBA series to the rLTR4 RNA G4. The FRET melting assay was not appropriate for investigating ligand binding to this RNAs due to its high thermal stability (Tm > 72 °C).[26] We have therefore used a ligand-induced fluorescence quenching assay (FQA) to analyse the interaction of the DBAs with either 5′ or 3′ fluorescently labelled RNAs (Fig. S8). Since planar G4-ligands generally stack on an accessible G-quartet,[94–96] we expect the DBAs to also recognize G4s by stacking interactions. To conduct a fluorescence quenching experiment, a CY5 fluorophore is attached on the 3′ or 5′ end of the RNA. […] Thus, upon interaction of the ligand with the G-quartet, the ligand induces the quenching of the fluorescence emission. This test enables determination of the apparent association constants (Ka) of each DBA with the 5′ or 3′ quartet of the G4 structure (Fig. 4, Table S3). […] A similar difference in G-tetrad binding affinities has previously been observed for TMPyP4 and PhenDC3.[47]
(§3) The fluorescently labeled oligonucleotides were dissolved at a concentration of 10 nM in 10 mM lithium cacodylate buffer (pH 7.2) with 10 mM KCl and 90 mM LiCl. […] Data are the results of at least three independent experiments in which each data point was performed in duplicate.

The subject of assay [3] is rLTR4-5′Cy5 (parallel RNA G4). Kind of assay: Ligand-induced fluorescence quenching assay (FQA), rLTR4-5′Cy5. The assay is classed as binding, HIV-1. The method, then:
as §1, §2, §3

Assay [4] has as its system HeLa P4 cells. Kind of assay: Cell viability assay (CellTiter 96 AQueous One). The format is cell-based. As to conditions: read-out: EC50 (cell viability).
[5] abbreviates: HeLaP4, 24 h, 24 h treatment, formazan quantification.

Several values for one entry are separate records, joined by “and”; a condition that tells them apart may be missing. Identical values can stand only once. Like-named read-outs stand apart in the source and are kept apart here.

The term Kd denotes the equilibrium constant for the complex coming apart. A lower Kd goes with a tighter complex. Usually EC50 stands for the midpoint of the concentration-response curve. Turning to `COc1ccc2c(ccc3c2cc2c4ccc(OC)cc4ccc2[n+]3-c2ccc([N+](=O)[O-])cc2)c1` [DBA4], the “ΔT1/2 HIVpro1” value in assay [1] (+10µM ds26) was 5.1±0.5 °C; in assay [1] (No ds26) it was 7.0±2.0 °C and 7 °C. Besides, the “Ka rLTR4-3′Cy5 FQA” value in assay [2] (+10µM ds26) is listed as 1.9±0.1 10^5 M; in assay [2] (No ds26), 3.0±0.24 10^5 M. In addition, the Kd in assay [2] (+10µM ds26) amounted to 5.3 ± 1.1 µM; in assay [2] (No ds26), 3.3 ± 0.4 µM; in assay [3] (+10µM ds26), 8.4 ± 2.1 µM; in assay [3] (No ds26), 4.4 ± 1 µM. Further, the “Ka rLTR4-5′Cy5 FQA” value in assay [3] (+10µM ds26) is recorded as 1.2±0.05 10^5 M; in assay [3] (No ds26), 2.3±0.1 10^5 M. Also, the EC50 in assay [4] (setting [5]) was roughly 15 µM; in assay [4] (HeLaP4, 24 h) it was 15.4 µM.

Consider `COC(=O)c1ccc(-[n+]2c3ccc4cc(OC)ccc4c3cc3c4ccc(OC)cc4ccc32)cc1` [DBA2], for which the “ΔT1/2 HIVpro1” value in assay [1] (+10µM ds26) was 3.9±0.2 °C; in assay [1] (No ds26) it was 5.6±0.3 °C and 5.6 °C. The “Ka rLTR4-3′Cy5 FQA” value is listed as 1.2±0.08 10^5 M in assay [2] (+10µM ds26) and 1.5±0.06 10^5 M in assay [2] (No ds26). Moreover, the dissociation constant Kd is 8.6 ± 1.3 µM in assay [2] (+10µM ds26), 6.7 ± 1.5 µM in assay [2] (No ds26), 11.6 ± 3.8 µM in assay [3] (+10µM ds26) and 9.3 ± 2.9 µM in assay [3] (No ds26). Also, the “Ka rLTR4-5′Cy5 FQA” value is 0.9±0.03 10^5 M in assay [3] (+10µM ds26) and 1.1±0.03 10^5 M in assay [3] (No ds26). The EC50 in assay [4] (setting [5]) is 2.9 µM.

Turning to `COc1ccc(-[n+]2c3ccc4cc(OC)ccc4c3cc3c4ccc(OC)cc4ccc32)cc1` [DBA3], the “ΔT1/2 HIVpro1” value was 5.0±0.1 °C in assay [1] (+10µM ds26); 6.3±0.7 °C and 6.3 °C in assay [1] (No ds26). The “Ka rLTR4-3′Cy5 FQA” value in assay [2] (+10µM ds26) is 1.5±0.09 10^5 M; in assay [2] (No ds26), 1.6±0.11 10^5 M. For the same compound, the dissociation constant Kd in assay [2] (+10µM ds26) worked out at 6.9 ± 1.1 µM; in assay [2] (No ds26), 6.2 ± 1 µM; in assay [3] (+10µM ds26), 11.1 ± 1.4 µM; in assay [3] (No ds26) it was 8.7 ± 1.6 µM. Also, the “Ka rLTR4-5′Cy5 FQA” value was 0.9±0.07 10^5 M in assay [3] (+10µM ds26) and 1.2±0.06 10^5 M in assay [3] (No ds26). For the same compound, the EC50 in assay [4] (setting [5]) was 4.3 µM.

With `c1ccc(-[n+]2c3ccc4ccccc4c3cc3c4ccccc4ccc32)cc1` [DBA5], the figures for the “ΔT1/2 HIVpro1” value in assay [1] (+10µM ds26) and in assay [1] (No ds26) were 3.6±0.04 °C and 5.0±0.03 °C, respectively. Also, the “Ka rLTR4-3′Cy5 FQA” value is 2.5±0.2 10^5 M in assay [2] (+10µM ds26) and 2.5±0.31 10^5 M in assay [2] (No ds26). The Kd in assay [2] (+10µM ds26) was determined as 4 ± 0.6 µM; in assay [2] (No ds26), 4 ± 0.3 µM; in assay [3] (+10µM ds26), 9.5 ± 2.6 µM; in assay [3] (No ds26), 6.2 ± 1.4 µM. Further, the “Ka rLTR4-5′Cy5 FQA” value in assay [3] (+10µM ds26) is reported as 1.1±0.04 10^5 M; in assay [3] (No ds26), 1.6±0.07 10^5 M. Further, the 50% effective concentration (EC50) was roughly 15 µM in assay [4] (24 h treatment, formazan quantification) and 16.7 µM in assay [4] (setting [5]).

Take `COc1ccc2c(ccc3c2cc2c4ccc(OC)cc4ccc2[n+]3-c2ccccc2)c1` [DBA1]: the “ΔT1/2 HIVpro1” value came to 4.4±0.7 °C in assay [1] (+10µM ds26) and 6.9±0.04 °C in assay [1] (No ds26). Further, the “Ka rLTR4-3′Cy5 FQA” value in assay [2] (+10µM ds26) is listed as 2.8±0.23 10^5 M; in assay [2] (No ds26), 3.1±0.2 10^5 M. Further, the dissociation constant Kd in assay [2] (+10µM ds26) turned out to be 3.3 ± 0.4 µM; in assay [2] (No ds26) it was 3.2 ± 0.5 µM; in assay [3] (+10µM ds26), 8.9 ± 1.8 µM; in assay [3] (No ds26) it was 5.5 ± 1.5 µM. The “Ka rLTR4-5′Cy5 FQA” value was 1.1±0.06 10^5 M in assay [3] (+10µM ds26) and 1.8±0.07 10^5 M in assay [3] (No ds26). The EC50 in assay [4] (setting [5]) turned out to be 5.2 µM.

The values are drawn from PMC13334477 (RSC Medicinal Chemistry, 2026).
